This passage reports Ki results from patent US9029546B2, “Pyrazolopyridine kinase inhibitors” (Vertex Pharmaceuticals Incorporated, priority 2008, dated 2015).

Test [1] addresses PKC theta kinase (Homo sapiens, UniProt Q04759). Put plainly: PKC theta coupled-enzyme kinase assay (NADH consumption). Particulars: 240 μM ATP, 30° C. It is filed as biochemical. The procedure:
(§1) An assay buffer solution was prepared which consisted of 100 mM HEPES (pH 7.5), 10 mM MgCl2, 25 mM NaCl, 0.1 mM EDTA and 0.01% Brij. An enzyme buffer containing reagents to final assay concentrations of 0.00001% Triton X-100, 200 μg/mL Phosphatidylserine, 20 μg/mL Diacylglycerol, 360 μM NADH, 3 mM phosphoenolpyruvate, 70 μg/mL pyruvate kinase, 24 μg/mL lactate dehydrogenase, 2 mM DTT, 100 μM substrate peptide (ERMRPRKRQGSVRRRV (SEQ ID NO: 1)) and 18 nM PKC theta kinase was prepared in assay buffer. To 60 μL of this enzyme buffer, in a 384 well plate, was added 2 μL of VRT stock solution in DMSO. The mixture was allowed to equilibrate for 10 mins at 30° C. The enzyme reaction was initiated by the addition of 5 μL stock ATP solution prepared in assay buffer to a final assay concentration of 240 μM. Initial rate data was determined from the rate of change of absorbance at 340 nm (corresponding to stoichiometric consumption of NADH) using a Molecular Devices Spectramax plate reader (Sunnyvale, Calif.) over 15 mins at 30° C. For each Ki determination 12 data points covering the VRT concentration range of 0-20 μM were obtained in duplicate (DMSO stocks were prepared from an initial 10 mM VRT stock with subsequent 1:2 serial dilutions). Ki values were calculated from initial rate data by non-linear regression using the Prism software package (Prism 4.0a, Graphpad Software, San Diego, Calif.).

Test [2] addresses PKC Delta (Homo sapiens, UniProt Q05655). The experiment in a line: PKC delta coupled-enzyme kinase assay (NADH consumption). Particulars: 240 μM ATP, 30° C. It is filed as biochemical. As to the method: [The source words this procedure for another target and reports this target under the same test.] as §1

Structures are written as SMILES.

PKC theta kinase, sequence (Q04759 whole entry): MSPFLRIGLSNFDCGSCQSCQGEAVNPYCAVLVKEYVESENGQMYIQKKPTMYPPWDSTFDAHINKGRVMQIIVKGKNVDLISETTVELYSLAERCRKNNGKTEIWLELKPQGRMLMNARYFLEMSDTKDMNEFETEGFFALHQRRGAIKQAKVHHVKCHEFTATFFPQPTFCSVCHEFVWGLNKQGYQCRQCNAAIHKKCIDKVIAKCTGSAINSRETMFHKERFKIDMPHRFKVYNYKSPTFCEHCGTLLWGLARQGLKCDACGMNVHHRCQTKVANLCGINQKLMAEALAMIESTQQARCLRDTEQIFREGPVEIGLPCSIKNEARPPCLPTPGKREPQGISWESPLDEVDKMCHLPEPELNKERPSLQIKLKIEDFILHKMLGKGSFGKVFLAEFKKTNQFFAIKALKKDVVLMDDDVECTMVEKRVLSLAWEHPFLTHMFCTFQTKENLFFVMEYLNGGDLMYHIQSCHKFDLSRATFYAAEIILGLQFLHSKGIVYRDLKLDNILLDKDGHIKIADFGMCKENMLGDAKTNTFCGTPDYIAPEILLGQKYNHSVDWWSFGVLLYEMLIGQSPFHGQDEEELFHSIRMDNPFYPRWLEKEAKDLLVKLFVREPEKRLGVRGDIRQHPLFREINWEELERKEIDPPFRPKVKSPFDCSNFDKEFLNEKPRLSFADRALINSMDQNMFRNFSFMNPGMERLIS
PKC Delta, sequence (Q05655 whole entry): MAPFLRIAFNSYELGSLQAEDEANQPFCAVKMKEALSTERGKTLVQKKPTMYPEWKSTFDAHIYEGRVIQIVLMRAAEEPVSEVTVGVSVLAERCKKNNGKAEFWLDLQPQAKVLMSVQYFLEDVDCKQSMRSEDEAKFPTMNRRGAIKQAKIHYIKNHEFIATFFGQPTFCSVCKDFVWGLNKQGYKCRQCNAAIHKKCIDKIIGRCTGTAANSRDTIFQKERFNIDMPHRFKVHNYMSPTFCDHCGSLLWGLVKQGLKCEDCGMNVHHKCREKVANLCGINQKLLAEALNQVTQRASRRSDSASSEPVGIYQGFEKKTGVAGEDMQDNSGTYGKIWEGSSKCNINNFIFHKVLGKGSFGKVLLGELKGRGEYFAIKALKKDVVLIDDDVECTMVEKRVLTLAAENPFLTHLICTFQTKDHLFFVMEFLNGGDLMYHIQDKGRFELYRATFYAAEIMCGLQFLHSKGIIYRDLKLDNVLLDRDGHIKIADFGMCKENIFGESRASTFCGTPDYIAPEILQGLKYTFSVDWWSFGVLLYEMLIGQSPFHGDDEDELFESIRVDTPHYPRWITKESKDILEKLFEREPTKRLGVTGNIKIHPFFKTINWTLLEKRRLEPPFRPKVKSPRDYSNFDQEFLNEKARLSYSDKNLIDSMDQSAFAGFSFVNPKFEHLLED

Take `CC(C)(CN)COc1ccc(C(F)(F)F)c(-c2n[nH]c3ncccc23)n1` [Compound 54]: the Ki in test [1] and in test [2] was above 700 nM in each case.

Turning to `NC1CCC(CNc2ccc(C(F)(F)F)c(-c3n[nH]c4ncccc34)n2)CC1` (stereo not shown) [Compound 25, N-((4-aminocyclohexyl)methyl)-6-(1H-pyrazolo[3,4-b]pyridin-3-yl)-5-(trifluoromethyl)pyridin-2-amine], the Ki in test [1] and in test [2] was below 500 nM throughout.

For `CC(C)C[C@@H](N)COc1ccc(C(F)(F)F)c(-c2n[nH]c3ncccc23)n1` [Compound 39], the inhibition constant (Ki) in test [1] and in test [2] was above 700 nM throughout.

As for `FC(F)(F)c1ccc(NC2CCNCC2)nc1-c1n[nH]c2ncccc12` [Compound 40], the inhibitory constant (Ki) in test [1] and in test [2] was below 2800 nM throughout.

Consider `CC(C)(CN)CNc1ccc(C(F)(F)F)c(-c2n[nH]c3ncccc23)n1` [Compound 33], for which the Ki in test [1] and in test [2] was below 500 nM throughout.

As for `FC(F)(F)c1ccc(Nc2ccc3nc[nH]c3c2)nc1-c1n[nH]c2ncccc12` [Compound 49], the inhibition constant Ki in test [1] and in test [2] was above 700 nM throughout.

`FC(F)(F)c1ccc(NCC2CCNC2)nc1-c1n[nH]c2ncccc12` (stereo not shown) [Compound 29]: the Ki in test [1] and in test [2] was above 700 nM throughout.

Turning to `CN1CCCC(COc2ccc(C(F)(F)F)c(-c3n[nH]c4ncccc34)n2)C1` (stereo not shown) [Compound 55], the inhibitory constant (Ki) in test [1] and in test [2] was above 700 nM throughout.

As to `CC[C@H](CO)Nc1ccc(C(F)(F)F)c(-c2n[nH]c3ncccc23)n1` [Compound 86], the Ki in test [1] and in test [2] was above 700 nM each time.

On to `NC1CCC(Oc2ccc(C(F)(F)F)c(-c3n[nH]c4ncccc34)n2)CC1` (stereo not shown) [Compound 59], for which the Ki in test [1] and in test [2] was above 700 nM each time.

Take `CC(C)(CN)CNc1cccc(-c2n[nH]c3ncccc23)n1` [Compound 10]: the inhibitory constant (Ki) in test [1] and in test [2] was below 500 nM in each case.

With `N#CCCOc1ccc(C(F)(F)F)c(-c2n[nH]c3ncccc23)n1` [Compound 45], the inhibition constant (Ki) in test [1] and in test [2] was above 700 nM throughout.

As to `NCC1CCCC(CNc2ccc(C(F)(F)F)c(-c3n[nH]c4ncccc34)n2)C1` (stereo not shown) [Compound 34], the Ki in test [1] and in test [2] was above 700 nM throughout.

Regarding `NC1CCC(Nc2ccc(C(F)(F)F)c(-c3n[nH]c4ncccc34)n2)CC1` (stereo not shown) [Compound 35], the Ki in test [1] and in test [2] was above 700 nM in each case.

As for `FC(F)(F)c1ccc(NC2CCCNC2)nc1-c1n[nH]c2ncccc12` (stereo not shown) [Compound 26], the Ki in test [1] and in test [2] was above 700 nM throughout.

`FC(F)(F)c1ccc(NCC2CNC2)nc1-c1n[nH]c2ncccc12` [Compound 66]: the inhibitory constant (Ki) in test [1] and in test [2] was above 700 nM in each case.

With `OCCNc1ccc(C(F)(F)F)c(-c2n[nH]c3ncccc23)n1` [Compound 82], the Ki in test [1] and in test [2] was above 700 nM in each case.

On to `FC(F)(F)c1ccc(OCCC2CCCCN2)nc1-c1n[nH]c2ncccc12` (stereo not shown) [Compound 43], for which the Ki in test [1] and in test [2] was above 700 nM throughout.

For the compound `CC(O)CNc1ccc(C(F)(F)F)c(-c2n[nH]c3ncccc23)n1` (stereo not shown) [Compound 53], the inhibitory constant (Ki) in test [1] and in test [2] was above 700 nM in each case.

With `CCN1CCC(Oc2ccc(C(F)(F)F)c(-c3n[nH]c4ncccc34)n2)C1` (stereo not shown) [Compound 56], the Ki in test [1] and in test [2] was above 700 nM throughout.

For the compound `CC(C)C[C@H](N)CNc1cccc(-c2n[nH]c3ncccc23)n1` [Compound 16], the Ki in test [1] and in test [2] was below 500 nM each time.

On to `OC1(CNc2ccc(C(F)(F)F)c(-c3n[nH]c4ncccc34)n2)CCCCC1` [Compound 47], for which the inhibition constant Ki in test [1] and in test [2] was below 500 nM throughout.

`FC(F)(F)c1ccc(OC[C@@H]2CCCN3CCCC[C@@H]23)nc1-c1n[nH]c2ncccc12` [Compound 74]: the inhibitory constant (Ki) in test [1] and in test [2] was above 700 nM each time.

Turning to `OC[C@H](Cc1ccccc1)Nc1ccc(C(F)(F)F)c(-c2n[nH]c3ncccc23)n1` [Compound 77], the Ki in test [1] and in test [2] was above 700 nM each time.

As to `NCC(CNc1cccc(-c2n[nH]c3ncccc23)n1)c1ccccc1` (stereo not shown) [Compound 9], the inhibition constant Ki in test [1] and in test [2] was below 50 nM throughout.

In the case of `CCC(O)CNc1ccc(C(F)(F)F)c(-c2n[nH]c3ncccc23)n1` (stereo not shown) [Compound 83], the inhibition constant Ki in test [1] and in test [2] was above 700 nM each time.

On to `NC1CCCC(Nc2ccc(C(F)(F)F)c(-c3n[nH]c4ncccc34)n2)C1` (stereo not shown) [Compound 30], for which the inhibition constant Ki in test [1] and in test [2] was below 500 nM throughout.

As to `c1cc(NCC2CCNCC2)nc(-c2n[nH]c3ncccc23)c1` [Compound 14], the Ki in test [1] and in test [2] was below 500 nM throughout.

Take `FC(F)(F)c1ccc(NC2CNC2)nc1-c1n[nH]c2ncccc12` [Compound 63]: the inhibition constant Ki in test [1] and in test [2] was above 700 nM throughout.

As to `FC(F)(F)c1ccc(OCC2CCCNC2)nc1-c1n[nH]c2ncccc12` (stereo not shown) [Compound 46], the Ki in test [1] and in test [2] was above 700 nM in each case.

With `CNCCN(C)c1cccc(-c2n[nH]c3ncccc23)n1` [Compound 5], the Ki in test [1] and in test [2] was below 2800 nM in each case.

With `OC[C@H](Nc1ccc(C(F)(F)F)c(-c2n[nH]c3ncccc23)n1)c1ccccc1` [Compound 79], the inhibition constant Ki in test [1] and in test [2] was below 500 nM in each case.
